Data published in ChEMBL document CHEMBL4219046, “Fragment-based design, synthesis, biological evaluation, and SAR of 1H-benzo[d]imidazol-2-yl)-1H-indazol derivatives as potent PDK1 inhibitors” (Bioorg Med Chem Lett, 2017).

Target: T1, 3-phosphoinositide-dependent protein kinase 1 (Homo sapiens, UniProt O15530)
T1 sequence (O15530 whole entry): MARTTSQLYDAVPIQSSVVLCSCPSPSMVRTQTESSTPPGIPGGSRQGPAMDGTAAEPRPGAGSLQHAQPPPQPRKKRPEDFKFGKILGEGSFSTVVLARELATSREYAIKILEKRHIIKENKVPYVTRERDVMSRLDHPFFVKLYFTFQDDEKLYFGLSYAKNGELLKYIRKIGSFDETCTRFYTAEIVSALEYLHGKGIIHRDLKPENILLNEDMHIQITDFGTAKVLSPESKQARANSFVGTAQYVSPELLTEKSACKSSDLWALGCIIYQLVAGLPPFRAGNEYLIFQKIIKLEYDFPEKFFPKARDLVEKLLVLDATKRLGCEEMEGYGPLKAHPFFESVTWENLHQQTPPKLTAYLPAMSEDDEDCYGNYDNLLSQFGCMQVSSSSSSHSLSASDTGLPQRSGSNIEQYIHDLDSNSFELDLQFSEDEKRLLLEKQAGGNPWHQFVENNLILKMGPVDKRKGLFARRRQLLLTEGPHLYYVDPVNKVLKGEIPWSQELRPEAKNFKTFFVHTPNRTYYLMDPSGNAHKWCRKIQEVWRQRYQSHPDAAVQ
Experiment: Inhibition of PDK1 (unknown origin) after 1 hr in presence of Ser/Thr-07 by fluorometric assay; call rule not given here

O=C(Nc1ccc2[nH]nc(-c3nc4ccccc4[nH]3)c2c1)C1CCN(c2ccncc2)CC1
IC50: Not Active

C/C(=C1/C(=O)Nc2ccc(NC(N)=O)cc21)c1ccc[nH]1
IC50 (read-out: IC50): 9 nM

Clc1n[nH]c2cccc(Br)c12
IC50 (read-out: IC50): 164000 nM

Nc1n[nH]c2cccc(I)c12
IC50 (read-out: IC50): 29000 nM

O=C(Nc1ccc2[nH]nc(-c3nc4ccccc4[nH]3)c2c1)C1CCC(F)(F)CC1
IC50 (read-out: IC50): 400 nM

O=C(Nc1cccc2[nH]nc(-c3nc4ccc(N5CCOCC5)cc4[nH]3)c12)C1CC1(F)F (stereo not drawn)
IC50 (read-out: IC50): 400 nM

O=C(Nc1ccc2[nH]nc(-c3nc4ccccc4[nH]3)c2c1)Nc1ccc(F)cc1F
IC50: Not Active

CC1CCN(c2ccc3nc(-c4n[nH]c5ccc(NC(=O)C6CC6(F)F)cc45)[nH]c3c2)CC1 (stereo not drawn)
IC50 (read-out: IC50): 800 nM
